Measured values taken from patent US10870638B2, “Pyridazinone compound or its salt, and herbicide containing it” (ISHIHARA SANGYO KAISHA, LTD., priority 2016, dated 2020).

Columns and labels:
Assay type in all cases: in vivo
Details in all cases: active ingredient amount 31 g/ha, 14th day after application
[1] = test system: italian ryegrass (Lolium multiflorum Lam.); test: Test Example 1: foliar treatment, growth inhibition rate on 14th day
Method in brief: (§1)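 Visual 0–100% inhibition scoring (100 = complete kill) at 14 days after foliar treatment of soil-grown seedlings at species-specific leaf stages, with the compound sprayed as a wettable powder or emulsifiable concentrate dilution.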

[2] = test system: barnyardgrass (Echinochloa crus-qalli L.); test: as above
Method in brief: as §1

corn (Zea mays L.) [3] = test: as above
Method in brief: as §1

rice (Oryza sativa L.) [4] = test: as above
Method in brief: (§2)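 Sow seeds in upland soil pots; at target leaf stage (wild oat 0.4–1.2, rice 0.2–2.7, foxtail 0.5–3.2, soybean primary leaf) spray formulated compound in water, 1,000 L/ha, 0.1 vol % surfactant. Score inhibition visually at day 14, 0–100%.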

[5] = test system: redroot pigweed (Amaranthus retroflexus L.); test: as above
Method in brief: as §1

[6] = test system: wild oat (Avena fatua L.); test: as above
Method in brief: as §2

[7] = test system: wheat (Triticum aestivum L.); test: as above
Method in brief: as §1

[8] = test system: soybean (Glycine max Merr.); test: as above
Method in brief: as §2

[9] = test system: green foxtail (Setaria viridis L.); test: as above
Method in brief: as §2

[10] = test system: crabgrass (Digitaria sanquinalis L.); test: as above
Method in brief: as §1

[11] = test system: prickly sida (Sida spinosa L.); test: Test Example 2: soil application on the day after sowing, growth inhibition rate on 14th day
Method in brief: (§3)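 Field soil in 1/300,000 ha pots was sown, and the next day compounds formulated as wettable powders or emulsifiable concentrates were diluted in water (1,000 L/ha) and soil-sprayed at the prescribed active ingredient rates. Growth inhibition was scored visually 14 days later, 0 (untreated) to 100 (complete kill).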

[12] = test system: barnyardgrass (Echinochloa crus-qalli L.); test: as above
Method in brief: as §3

corn (Zea mays L.) [13] = test: as above
Method in brief: as §3

rice (Oryza sativa L.) [14] = test: as above
Method in brief: as §3

[15] = test system: redroot pigweed (Amaranthus retroflexus L.); test: as above
Method in brief: as §3

[16] = test system: crabgrass (Digitaris sanquinalis L.); test: as above
Method in brief: as §3

[17] = test system: wheat (Triticum aestivum L.); test: as above
Method in brief: as §3

[18] = test system: soybean (Glycine max Merr.); test: as above
Method in brief: as §3

[19] = test system: green foxtail (Setaria viridis L.); test: as above
Method in brief: as §3

[20] = test system: velvetleaf (Abutilon theophrasti MEDIC.); test: as above
Method in brief: as §3

[21] = visual, 0 = non-treated, 100 = complete kill

Row | SMILES | Growth inhibition rate (%) Italian ryegrass [1] [%] | Growth inhibition rate (%) Barnyardgrass [2] [%] | Growth inhibition rate (%) Corn (corn (Zea mays L.) [3]) [%] | Growth inhibition rate (%) Rice (rice (Oryza sativa L.) [4]) [%] | Growth inhibition rate (%) Redroot pigweed [5] [%] | Growth inhibition rate (%) Wild oat [6] [%] | Growth inhibition rate (%) Wheat [7] [%] | Growth inhibition rate (%) Soybean [8] [%] | Growth inhibition rate (%) Green foxtail [9] [%] | Growth inhibition rate (%) Crabgrass [10] [%] | Growth inhibition rate (%) Prickly sida [11] [%] | Growth inhibition rate (%) Barnyardgrass [12] [%] | Growth inhibition rate (%) Corn (corn (Zea mays L.) [13]) [%] | Growth inhibition rate (%) Rice (rice (Oryza sativa L.) [14]) [%] | Growth inhibition rate (%) Redroot pigweed [15] [%] | Growth inhibition rate (%) Crabgrass [16] [%] | Growth inhibition rate (%) Wheat [17] [%] | Growth inhibition rate (%) Soybean [18] [%] | Growth inhibition rate (%) Green foxtail [19] [%] | Growth inhibition rate (%) Velvetleaf [20] [%] | further results
1 | CCc1ccc(Oc2nc3cc(Cl)ccc3o2)cc1-c1c(O)c(C)nn(C)c1=O [Compound 2-161] | 99 | 100 | 90 | 99 | 40 | 99 | 85 | 0 | 100 | 83 | 0 | 98 | 0 | 0 | 0 | 0 | 0 | 0 | 0 | 0 | –
2 | CCOC(=O)Oc1c(C)nn(C)c(=O)c1-c1cc(Oc2ncc(C(F)(F)F)cc2Cl)ccc1C [1-41] | 100 | 100 | 98 | 80 | 10 | 99 | 98 | 0 | 100 | 99 | 0 | 100 | 20 | 0 | 0 | 100 | 0 | 0 | 100 | 0 | –
3 | CCc1ccc(Oc2ncc(C(F)(F)F)cc2Cl)cc1-c1c(OC(C)=O)cnn(CC)c1=O [1-174] | 93 | 100 | 100 | 20 | 0 | 100 | 75 | 0 | 100 | 100 | 0 | 100 | 0 | 0 | 0 | 100 | 0 | 0 | 100 | 0 | –
4 | Cc1nn(C)c(=O)c(-c2cc(Oc3ncc(C(F)(F)F)cc3Cl)ccc2C2CC2)c1O [1-149] | 83 | 100 | 50 | 70 | 10 | 85 | 20 | 0 | 100 | 98 | 0 | 98 | 0 | 0 | 0 | 99 | 0 | 0 | 100 | 0 | –
5 | C=CCOC(=O)Oc1c(C)nn(C)c(=O)c1-c1cc(Oc2cnc3cc(Cl)ccc3n2)ccc1C [Compound 3-58] | – | – | – | – | – | – | – | – | – | – | 0 | 85 | 0 | 0 | 0 | 10 | 0 | 0 | 75 | 0 | Growth inhibition rate (%) Italian ryegrass [1, 21]: 99%; Growth inhibition rate (%) Barnyardgrass [2, 21]: 100%; Growth inhibition rate (%) Corn (corn (Zea mays L.) [3]; [21]): 55%; Growth inhibition rate (%) Rice (rice (Oryza sativa L.) [4]; [21]): 50%; Growth inhibition rate (%) Redroot pigweed [5, 21]: 0%; Growth inhibition rate (%) Wild oat [6, 21]: 95%; Growth inhibition rate (%) Wheat [7, 21]: 98%; Growth inhibition rate (%) Soybean [8, 21]: 25%; Growth inhibition rate (%) Green foxtail [9, 21]: 100%; Growth inhibition rate (%) Crabgrass [10, 21]: 99%
6 | Cn1ncc(O)c(-c2cc(Oc3ncc(C(F)(F)F)cc3Cl)ccc2OC(F)(F)F)c1=O [1-162] | 99 | 100 | 98 | 93 | 0 | 100 | 99 | 0 | 100 | 100 | 0 | 100 | 40 | 95 | 0 | 100 | 0 | 0 | 100 | 0 | –
7 | CC(=O)Oc1c(C)nn(C)c(=O)c1-c1cc(Oc2nc3ccccc3o2)ccc1C [Compound 2-138] | 20 | 90 | 15 | 35 | 0 | 20 | 10 | 0 | 65 | 65 | 0 | 93 | 0 | 25 | 0 | 83 | 0 | 0 | 90 | 0 | –
8 | CCn1nc(C)c(OC(C)=O)c(-c2cc(Oc3ncc(C(F)(F)F)cc3Cl)ccc2C)c1=O [1-165] | 100 | 100 | 100 | 83 | 0 | 100 | 95 | 0 | 100 | 100 | 0 | 99 | 0 | 0 | 0 | 100 | 0 | 0 | 95 | 0 | –
9 | CC(=O)Oc1c(C)nn(C)c(=O)c1-c1cc(Oc2ncc(C(F)(F)F)cc2F)ccc1C [Compound 2-63] | 100 | 100 | 100 | 90 | 0 | 100 | 95 | 0 | 100 | 98 | 0 | 100 | 0 | 15 | 0 | 100 | 0 | 0 | 98 | 0 | –
